Source: patent publication US20050249805A1, “Compositions and methods for treating hepatitis C virus (HCV) infection” (priority 2003, published 2005)

Key:
carboxylesterase [1] = experiment: Hydrolysis of Compound III in human small intestinal microsomes, effect of BNPP; assay type: in vitro ADME
[2] = Effect of BNPP pretreatment on exposure of III in mice; details: mice pretreated with BNPP vs untreated
Procedure: (§4) Balb/c male mice were predosed intraperitoneally with 100 mg/kg (20 mg/mL) of bis(p-nitrophenyl) phosphate (BNPP) in ethanol/polyethylene glycol (PEG400) 10:40 v/v or the vehicle, one hour before dosing with III at 1 mg/kg (1 mg/mL) by intravenous bolus in PEG400, or at 30 mg/kg (5 mL/kg) orally in TGPS/PEG400/PG/PBS.
(§5) Blood samples were collected into heparinized Microtainer tubes, spiked with 30% BNPP solution in ethanol, 10 μl/mL blood. Livers were snap frozen in liquid nitrogen. Samples were stored at −80° C. until analyzed by LC/MS/MS procedure, as described below.
(§6) The MRM mode of detection was used for LC/MS/MS analysis. Test compounds were extracted from plasma by direct protein precipitation with a mixture of acetonitrile, ethanol and dimethyl sulfoxide (DMSO) (2:1:1 v/v) and internal standard. Following vortexing and centrifugation, 10 μL of the extract was analyzed by LC-MS/MS.
(§7) Liver homogenate (20% volume in DMSO: water) was prepared using a Polytron homogenizer. Test compounds were extracted from 100 μL of the homogenized mixture as described for plasma and analyzed by LC/MS/MS.
(§8) LC/MS/MS was performed on PE-Sciex API3000 triple quadrupole mass spectrometer, using Betasil C8 column (3×50 mm, 3 μm), with mobile phase A: 0.1% formic acid in water, and B: 0.1% formic acid in acetonitrile. Multiple reaction monitoring (MRM) in the positive ionization mode and Analyst 1.1 software was used for quantitation and data acquisition.

carboxylesterase [3] = experiment: Hydrolysis of Compound III in human colon microsomes, effect of BNPP; assay type: in vitro ADME
carboxylesterase [4] = experiment: IC50 of carboxylesterase inhibitor (reduction in metabolic conversion of anti-HCV compound); assay type: biochemical
Source text: The suitability of a carboxylesterase inhibitor may be confirmed by the guidance provided herein and by methods well known in the art. In one embodiment, in vitro systems may be used. For example, body fluids (e.g., blood), tissue homogenates, or microsomal preparations from tissues (e.g., liver, intestine, etc.) are contacted with the anti-HCV compound in presence or absence of varying concentrations of inhibitor. Decrease in substrate concentration and/or accumulation of metabolic product (e.g., aniline metabolite) are measured by techniques that include, by way of example and not limitation, LC/MS/MS, GC/MS and/or HPLC. These initial determinations can provide an IC50 of the carboxylesterase inhibitor sufficient to affect biotransformation of the anti-HCV compounds. Moroever, use of purified carboxylesterase enzymes, cDNA expressed enzymes, cells transfected with cloned carboxylesterase genes, etc., can be used to identify the specific enzymes responsible for the biotransformation.
Generally, an inhibitor plasma concentration of 5 μM or less is a reasonable IC50 for in vivo applications.

carboxylesterase [5] = experiment: Effect of enzyme inhibitors on hydrolysis of III in human liver microsomes; assay type: biochemical; details: for inhibition of hydrolysis of III: highest concentrations (NaF 500 mM, BNPP 500 uM); for effect on hydrolysis of III: PMSF 20-500 uM, Proadifen 5-100 uM
Procedure: Human male liver microsomes (Xenotech LLC, Kansas City, CS) were incubated with III in presence of increasing concentrations of known inhibitors of carboxylesterase, protease, and cytochrome P450 enzymes, followed by LC/MS/MS analysis of a parent compound and a primary metabolite aniline. […] Incubations were carried out at 37° C., at final concentrations of 0.1 M potassium phosphate buffer/0.1 mM EDTA, pH 7.4, specified concentration of inhibitor, 2 μM substrate, 0.5 mg/mL microsomal protein, 0.1% DMSO, 0.5% acetonitrile, in absence of NADPH. Incubations were started with a substrate, following 10 min preincubation of microsomal reaction mixture with inhibitors at 37° C. Reactions were stopped at specified time points with acetonitrile/methanol/DMSO (50:25:25) containing an internal standard.

[6] = Metabolic stability in rat liver microsomes; assay type: in vitro ADME, Sprague-Dawley rat; details: rat liver microsomes (FIG. 4B)
Procedure: (§1) Liver microsomes prepared from human (male and/or female) or Sprague-Dawley rat (female) (Xenotech LLC, Kansas City, CS), were incubated with compound II (FIG. 3) or III (FIG. 4), followed by LC/MS/MS analysis of a parent compound and a primary metabolite aniline. Incubations were carried out at 37° C., at final concentrations of 0.1 M potassium phosphate buffer/0.1 mM EDTA, pH 7.4, 1 μM substrate, 0.5 mg/mL microsomal protein, 0.01% DMSO, 0.3% acetonitrile, in presence or absence of 1 mM NADPH. Reactions were stopped at specified time points with acetonitrile/methanol/DMSO (50:25:25) containing an internal standard.

[7] = Metabolic stability in human liver microsomes; assay type: in vitro ADME
Procedure: as §1

[8] = In vivo metabolite profile of 14C-labeled II in rats; parameters: species or system Sprague Dawley rats; details: intravenous administration, HPLC
Procedure: Following administration of the compound to rats, plasma and liver were analyzed by HPLC for drug related metabolites.
Male Sprague Dawley rats were given either a single 1 mg/kg (1 mL/kg) bolus intravenous dose in 70% polyethylene glycol (PEG) 400/30% saline via a tail vein, or a single 1 mg/kg (2 mL/kg) oral dose in 4% polysorbate 80/96% saline of ^14C-labeled anti-HCV II, with radioactive dose of about 30 μCi per animal.
Groups of rats (n=2/dose route/time point) were sacrificed at specified times from 0 to 3 h after dosing. Heparinized plasma and liver were harvested and stored at −70° C. until analyzed. The plasma was assayed by liquid scintillation counting (LSC) in Beckman LS-6000LL Liquid Scintillation Counter.
Livers were homogenized in deionized water, combusted and analyzed by LSC. Portion of the homogenate was extracted by sonication with acetonitrile, centrifuged, and subjected to radioprofiling of supernatant by the Liquid Chromatography with Accurate Radioisotope Counting (LC-ARC). Agilent Series 1100 with Packard Radiomatic 150 radioactivity detector was used for analysis. Waters Spherisorb ODS1, 5 μm, 250×4.6 mm column was used, with mobile phase A: water/acetic acid/ammonium hydroxide (2000:20:20, v/v/v), B: acetonitrile. The radioactivity of peaks was calculated using ARC Data System software.

[9] = molecular target: T1, acetylcholinesterase (AchE: EC 3.1.1.7) (Electrophorus electricus, UniProt O42275); experiment: Hydrolysis of III by purified acetylcholinesterase; assay type: biochemical, electrical eel
T1 construct: acetylcholine esterase from electrical eel (EC 3.1.1.7, Sigma C2629); purchased Sigma C2629; host or cells: electric eel
T1 sequence (O42275 24-633): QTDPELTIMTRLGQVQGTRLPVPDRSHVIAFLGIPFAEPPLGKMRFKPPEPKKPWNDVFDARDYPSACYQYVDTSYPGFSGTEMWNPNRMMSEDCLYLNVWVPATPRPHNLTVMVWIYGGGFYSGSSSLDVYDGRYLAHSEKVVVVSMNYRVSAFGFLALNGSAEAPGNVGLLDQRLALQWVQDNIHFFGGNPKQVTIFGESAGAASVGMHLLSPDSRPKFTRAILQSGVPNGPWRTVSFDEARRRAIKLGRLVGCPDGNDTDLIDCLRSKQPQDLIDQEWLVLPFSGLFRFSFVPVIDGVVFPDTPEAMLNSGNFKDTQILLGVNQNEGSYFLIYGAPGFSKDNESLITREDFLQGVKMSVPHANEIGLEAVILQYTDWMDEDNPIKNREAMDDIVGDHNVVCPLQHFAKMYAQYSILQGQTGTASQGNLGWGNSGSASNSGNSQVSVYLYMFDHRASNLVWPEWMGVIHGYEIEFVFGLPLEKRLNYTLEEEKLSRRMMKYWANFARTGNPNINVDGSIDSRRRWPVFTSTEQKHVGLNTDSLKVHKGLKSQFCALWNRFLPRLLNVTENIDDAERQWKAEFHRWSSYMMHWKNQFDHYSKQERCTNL
Procedure: (§2) The following purified enzymes were used for assays: carboxylesterase from porcine liver (EC 3.1.1.1, Sigma E3019); butyrylcholine esterase, equine serum (pseudocholinesterase EC 3.1.1.8, Sigma C1057); and acetylcholine esterase from electrical eel (EC 3.1.1.7, Sigma C2629).
(§3) Purified enzyme preparations (0.2-2.0 units/mL) were incubated 0-30 min at 37° C. in 0.1 M potassium phosphate buffer, 0.1 mM EDTA, pH 7.4 and 0.5 mg/mL of bovine serum albumin. The substrate was delivered in 0.02% DMSO and 0.6% acetonitrile. Incubations were performed for 0-30 min at 37° C., separately for each time point. The reactions were terminated by precipitation with acetonitrile/ethanol/DMSO mixture, followed by filtering and LC/MS/MS analysis. […] Initial rates of substrate disappearance or product appearance were calculated by linear regression of 5-6 separate incubations.

[10] = mouse, in vivo, po
Procedure: as §4, §5, §6, §7, §8

[11] = molecular target: T2, butyrylcholinesterase (BuChE: EC 3.1.1.8) (Equus caballus, UniProt P81908); experiment: Hydrolysis of III by purified butyrylcholinesterase; assay type: biochemical, equine
T2 construct: butyrylcholine esterase, equine serum (pseudocholinesterase EC 3.1.1.8, Sigma C1057); purchased Sigma C1057; host or cells: equine serum
T2 sequence (P81908 whole entry): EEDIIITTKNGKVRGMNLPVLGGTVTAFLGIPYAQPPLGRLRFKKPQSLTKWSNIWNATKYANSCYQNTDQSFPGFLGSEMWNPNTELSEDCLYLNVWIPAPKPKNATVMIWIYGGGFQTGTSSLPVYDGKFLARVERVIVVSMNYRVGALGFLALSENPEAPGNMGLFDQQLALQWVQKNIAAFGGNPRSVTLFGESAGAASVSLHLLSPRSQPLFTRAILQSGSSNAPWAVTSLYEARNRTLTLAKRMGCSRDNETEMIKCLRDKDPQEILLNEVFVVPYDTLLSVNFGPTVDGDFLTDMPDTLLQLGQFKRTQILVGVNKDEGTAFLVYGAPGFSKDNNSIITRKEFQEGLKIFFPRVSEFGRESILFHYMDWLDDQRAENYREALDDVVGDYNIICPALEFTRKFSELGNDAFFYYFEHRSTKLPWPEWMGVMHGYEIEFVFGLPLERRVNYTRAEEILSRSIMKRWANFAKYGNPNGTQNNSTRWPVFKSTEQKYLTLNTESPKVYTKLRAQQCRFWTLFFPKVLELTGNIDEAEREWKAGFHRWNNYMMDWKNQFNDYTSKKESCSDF
Procedure: as §2, §3

[12] = Hydrolysis of III in liver microsomes of several species; assay type: in vitro ADME, human, monkey, dog, rabbit, rat, mouse; details: rates per mg protein vary with species
Procedure: FIG. 4A and FIG. 4B show the stability of […] when incubated in presence of microsomes prepared from human liver (FIG. 4A) or rat liver (FIG. 4B).

[13] = test system: pig liver carboxylesterase (EC 3.1.1.1); experiment: Hydrolysis of III by purified pig liver carboxylesterase; assay type: biochemical, porcine; details: enzyme concentration dependent
Procedure: as §2, §3

plasma blood esterases = experiment: Stabilization of III in mouse blood by carboxylesterase inhibitors; assay type: in vitro ADME
Procedure: Heparinized fresh mouse blood (1.6 mL) from […] was added to Vacutainer Tubes: Cat # 367587, lot 2079758, approx. 2 mL volume (3 mg NaF+6 mg disodium EDTA/tube) and spiked with III at 20 ng/mL blood, with concentration of NaF in blood of […]. Samples were incubated in duplicate at 37° C. up to 2 h. Control samples were incubated in eppendorf tubes without sodium fluoride. Blood concentrations of III and its aniline metabolite were assayed by LC/MS/MS by procedure described in Example 6.

[14] = Human Intestine (pooled 2 subjects), BNPP 50 μM
[15] = Human Intestine (pooled 2 subjects), BNPP 500 μM

## O=[N+]([O-])c1ccc(OP(=O)(O)Oc2ccc([N+](=O)[O-])cc2)cc1 [BNPP, bis(p-nitrophenyl) phosphate]
Carboxylesterase [1]; [14]
  Activity: 28%
  Inhibition: 72%
Carboxylesterase [1]; Human Intestine (pooled 2 subjects), BNPP 50 μM, hydrolysis of Compound III 1.8 μM
  Activity: 432 pmol/min/mg
Carboxylesterase [1]; [15]
  Activity: 2.6%
  Inhibition: 97%
Carboxylesterase [1]; Human Intestine (pooled 2 subjects), BNPP 500 μM, hydrolysis of Compound III 1.8 μM
  Activity: 39 pmol/min/mg
[2]
  levels of parent compound in the liver: significantly increased
Carboxylesterase [3]; Subject 1, BNPP 50 μM
  Activity: 75%
  Inhibition: 25%
Carboxylesterase [3]; Subject 1, BNPP 50 μM, hydrolysis of Compound III 1.8 μM
  Activity: 192 pmol/min/mg
Carboxylesterase [3]; Subject 2, BNPP 50 μM
  Activity: 121%
  Inhibition: 0%
Carboxylesterase [3]; Subject 2, BNPP 50 μM, hydrolysis of Compound III 1.8 μM
  Activity: 232 pmol/min/mg
Carboxylesterase [4]
  IC50: 10 to 50 µM
Carboxylesterase [5]
  inhibition of hydrolysis of III: Complete inhibition

## O=S(=O)(F)Cc1ccccc1 [PMSF, phenylmethanesulphonyl fluoride]
Carboxylesterase [5]
  effect on hydrolysis of III: weak inhibition

## CCCC(C(=O)OCCN(CC)CC)(c1ccccc1)c1ccccc1 [Proadifen, proadifen]
Carboxylesterase [5]
  effect on hydrolysis of III: did not affect hydrolysis

## O=C(Nc1cccc(-c2cc(-c3c(Cl)cccc3Cl)no2)c1)C(Cl)Cl [Compound II]
[6]
  stability of II in microsomes: Rapid disappearance of parent compound
[7]; human liver microsomes (FIG. 4A)
  stability of II in microsomes: Rapid disappearance of parent compound
[8]
  metabolite profile in plasma and liver: Aniline is the major product

## O=C(Nc1ccnc(-c2cc(-c3c(Cl)cccc3Cl)no2)c1)C(Cl)Cl [Compound III]
[9]
  hydrolysis of III by purified enzyme: not an efficient substrate
[10]
  Cmax: increased
  bioavailability (F): increased
  circulating metabolite: significantly reduced
  plasma exposure (AUC): increased
Carboxylesterase [1]; Human Intestine (pooled 2 subjects) microsomes, BNPP 0 μM, substrate 1.8 μM, substrate disappearance
  Activity: 1516 pmol/min/mg
[11]
  hydrolysis of III by purified enzyme: not an efficient substrate
[7]; human liver microsomes, absence or presence of NADPH
  metabolic stability in vitro of III: Rapid disappearance of the parent compound
[12]
  hydrolysis of III and conversion to aniline metabolite: occurs in microsomes prepared from livers of human, monkey, dog, rabbit, rat, and mouse
Carboxylesterase [3]; Subject 1 microsomes, BNPP 0 μM, substrate 1.8 μM, substrate disappearance
  Activity: 257 pmol/min/mg
Carboxylesterase [3]; Subject 2 microsomes, BNPP 0 μM, substrate 1.8 μM, substrate disappearance
  Activity: 192 pmol/min/mg
[13]
  hydrolysis of III by purified enzyme: efficiently hydrolyzed
Plasma blood esterases; absence of NaF
  stability of III in blood: rapid decrease in the levels of compound

## [F-].[Na+] [NaF, Sodium fluoride]
Carboxylesterase [5]
  inhibition of hydrolysis of III: Complete inhibition
Plasma blood esterases; 50 mM NaF
  effect of inhibitor on hydrolysis of III in blood: prevented hydrolysis
